Here are results for 1 compound from patent publication US20110028546A1, “NOVEL ANTIMICROBIAL FORMULATIONS INCORPORATING ALKYL ESTERS OF FATTY ACIDS AND NANOEMULSIONS THEREOF” (priority 2006, published 2011).

The structures appear in SMILES notation.

Common to all, as to assay: In vitro antimicrobial efficacy using time kill procedure (ASTM E 2315-03)
Holding throughout (type): cell-based
Conditions in all cases: 1.0% concentration

The test system of assay [1] is Staphylococcus Aureus—ATCC No. 6538. How it is done:
(§1) The following target organisms were included in the tests: E. Coli—ATCC No. 8739; Staphylococcus Aureus—ATCC No. 6538 and Candida Albicans—ATCC No. 10231. The initial inoculum counts for all the organisms were between 10^6 and 10^8 CFUs/ml.
(§2) The testing procedure was according to ASTM E 2315-03 standards and protocols. The exposure times were 2 minutes and 10 minutes. Each test concentration was tested in duplicate and each sample was plated in duplicate.
(§3) The log reduction expresses the efficacy of the antimicrobial formulation against the target organism. The final mean number of Colony Forming Units (CFUs) per ml of test solution at a given exposure time log 10 is calculated as follows:
(§4) Mean No. of CFUs/ml ═Na=C/(n×D×V)
(§5) • C=Total number of colonies counted on all plates • V=Sample volume used to prepare the pour plate (1 ml) • D=Dilution factor (0.01) • n=Number of plates taken into account • a=exposure time
(§6) The mean log reduction is calculated using the equation: […]
(§7) Mean log reduction log 10(NI×0.01)−log 10 (Na)
(§8) Where NI is the initial organism count

For assay [2], the system named is E. Coli—ATCC No. 8739. How it is done: as §1, §2, §3, §4, §5, §6, §7, §8
The test system of assay [3] is Candida Albicans—ATCC No. 10231. How it is done:
as §1, §2, §3, §4, §5, §6, §7, §8

On to `CC(O)C(=O)O` (stereo not drawn) [LA 88, Lactic Acid 88%], for which the “2 minute log reduction, S. Aureus” value in assay [1] (2 minutes exposure) is less than 2.0. Besides, in assay [1] (10 minutes exposure), the “10 minute log reduction, S. Aureus” value is reported as less than 2.0. In addition, the “2 minute log reduction, E. Coli” value in assay [2] (2 minutes exposure) is 2.36. Besides, the “10 minute log reduction, E. Coli” value in assay [2] (10 minutes exposure) came to 2.41. In assay [3] (2 minutes exposure), the “2 minute log reduction, Candida Albicans” value stood at 2.69. Besides, in assay [3] (10 minutes exposure), the “10 minute log reduction, Candida Albicans” value stood at 2.79.
